Measured values: article PMC9317316, “Synthesis and Evaluation of Some New 4H-Pyran Derivatives as Antioxidant, Antibacterial and Anti-HCT-116 Cells of CRC, with Molecular Docking, Antiproliferative, Apoptotic and ADME Investigations” (Pharmaceuticals, 2022)

How the values were obtained:
[1] = system: S. enteric (ATCC 43972); assay: Antibacterial agar diffusion method (inhibition zone); type: cell-based
Procedure, shortened: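 Agar diffusion: compounds applied to top agar seeded with the strain, inhibition zone measured; ampicillin (10 µg/well) as reference. Viability: 2 ×10^7 CFU/mL in BHI shaken with compound 60 min at 37 °C, serially diluted, plated, colonies counted after 24 h at 37 °C; IC50 from residual CFU, mean of three.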

[2] = system: CDK2 gene in HCT-116 cells; assay: qRT-PCR expression profile of the CDK2 gene in HCT-116 cells; type: cell-based, human; conditions: 24 h, relative to untreated cells (given as decreased x-fold)
Description: Second, the expression profiles of the CDK2 gene in HCT-116 cells treated with compounds 4d and 4k were determined. The results were compared with the positive control (cells treated with the well-known cytotoxic drug 5-fluorouracil) and the negative control (untreated cells).
Primers specific for the cyclin-dependent kinase-2 (CDK2) and caspase-3 genes were designed using primer blast (https://www.ncbi.nlm.nih.gov/tools/primer-blast/, accessed on 31 October 2021) or primer3 (https://primer3.ut.ee/, accessed on 31 October 2021) software. The selected genes covered the two main groups of the cyclin-dependent kinase-2 (CDK2) gene and the caspase-3 gene. Primers were used in RT-qPCR analysis to amplify fragments of 100–200 bp in length (Table 7).
Total RNA was extracted from each cell culture flask using the RNeasy extraction kit (RNeasy micro kit, cat. no. 74004). Up to 1 × 10^6 cells, depending on the cell line, were disrupted in buffer RLT and homogenized and disrupted. Ethanol was then added to the lysate, creating conditions that promote the selective binding of RNA to the RNeasy membrane. […] The amount of extracted RNA was quantified by estimating the absorbance at 260 nm. The purity of the RNA was checked by measuring the ratio of the absorbance at 260 and 280 nm, where a ratio ranging from 1.8 to 2.0 was taken to be pure. […]
(§1) Quantitative real-time PCR was carried out with the Thermal Cycler Rotorgene Real-Time System II (Rotorgene, South Korea) with the SYBR kit. […]
The relative expression levels through the average cycle threshold (CT) were successfully detected. Average CT values were calculated from the triplicate experiment conducted for each gene; the CT value was detected by subtracting the average CT value of genes from the CT value of actin and GAPDH genes. The relative expression levels of the target genes were calculated using the ΔΔ Ct method and the reference genes GAPDH for the cancer cell line. Finally, a fold change equation […] was used to estimate relative expression levels, while the standard deviation was calculated from the replicated experimental data.

[3] = system: caspase-3 gene in HCT-116 cells; assay: qRT-PCR expression profile of the caspase-3 gene in HCT-116 cells; type: cell-based, human; set-up: dose or concentration left out as unconfirmed; conditions: 24 h, as compared to the negative control
Text: Normally, apoptosis, or programmed cell death, is considered as a safeguard mechanism for managing stress and maintaining tissue homeostasis. It proceeds through a series of well-ordered biochemical cascades of events, which are regulated by a network of proteins. However, due to genetic and epigenetic mutations, deregulation of these proteins occurs, which results in evasion of apoptosis. This oncogenic transformation is a hallmark of human cancer, and it contributes to other tumorigenic events, including uncontrolled growth, accumulation of further genetic mutations, tumor angiogenesis and metastasis and chemotherapeutic resistance. Therefore, reinitiating selective cancer cell death is a fundamental goal in anticancer drug development. Research in cancer biology has provided fundamental insights into the apoptotic pathways and their deregulation in colon cancer. Moreover, it has identified the molecular targets for reinitiating selective tumor cell death, including antiapoptotic Bcl-2 family proteins, apoptosis inhibitors and activators of the TRAIL death receptor signaling pathway, as well as other apoptotic markers, such as caspases. Among the caspases, which play critical roles in apoptosis, are the initiators, including caspases-8 or 9, and the effectors, including caspase-3 and caspase-7. […] Thus, the real-time quantitative PCR analyses of caspase-3-gene levels following treatment with compounds 4d and 4K at a concentration […] for 24 h, were performed to investigate their potential as proapoptotic agents. […]
Total RNA was extracted from each cell culture flask using the RNeasy extraction kit (RNeasy micro kit, cat. no. 74004). […] The amount of extracted RNA was quantified by estimating the absorbance at 260 nm. The purity of the RNA was checked by measuring the ratio of the absorbance at 260 and 280 nm, where a ratio ranging from 1.8 to 2.0 was taken to be pure. […]
as §1

Structure (SMILES)	IZ (mm) [1]	CDK2 transcript level, fold [2]	caspase-3 gene transcription level, fold increase [3]
COc1cc(C2C(C#N)=C(N)OC(C)=C2C(=O)OCc2ccccc2)cc(OC)c1OC (centres unmarked) [4d, 6-Amino-5-cyano-2-methyl-4-(3,4,5-trimethoxy-phenyl)-4H-pyran-3-carboxylic acid benzyl ester]	7.0 ± 0.0 mm	0.50 fold	2.55 fold
CC1=C(C(=O)OCc2ccccc2)C(c2ccc(C#N)cc2)C(C#N)=C(N)O1 (centres unmarked) [4k, 6-Amino-5-cyano-4-(4-cyano-phenyl)-2-methyl-4H-pyran-3-carboxylic acid benzyl ester]	–	0.45 fold	4.62 fold
